In patent US20130096104A1, “IMIDAZOPYRIDINE COMPOUNDS, COMPOSITIONS AND METHODS OF USE” (GENENTECH, INC., priority 2010, published 2013) one finds Ki data, which are given here for 21 molecules.

Structures are written as SMILES.

The target in this assay is T1, TYK2 kinase domain (Homo sapiens, UniProt P29597).
T1 construct: The activity of the isolated JAK1, JAK2 or TYK2 kinase domain was measured
T1 sequence (P29597 897-1176 limits assumed): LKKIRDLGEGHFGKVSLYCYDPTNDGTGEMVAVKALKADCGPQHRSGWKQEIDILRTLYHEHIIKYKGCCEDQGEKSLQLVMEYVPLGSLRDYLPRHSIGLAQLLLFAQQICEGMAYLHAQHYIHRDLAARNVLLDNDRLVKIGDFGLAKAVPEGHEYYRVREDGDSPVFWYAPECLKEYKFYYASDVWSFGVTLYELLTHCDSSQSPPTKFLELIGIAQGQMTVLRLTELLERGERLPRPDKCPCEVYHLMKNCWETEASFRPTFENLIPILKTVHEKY
Put plainly: TYK2 inhibition assay (Example A, Caliper LabChip peptide phosphorylation). The settings on record: isolated kinase domain, 1 nM TYK2, 25 uM ATP, Morrison tight binding model. The class given is biochemical. As to the method:
The activity of the isolated JAK1, JAK2 or TYK2 kinase domain was measured by monitoring phosphorylation of a peptide derived from JAK3 ([…] fluorescently labeled on the N-terminus with 5-carboxyfluorescein using the Caliper LabChip technology (Caliper Life Sciences, Hopkinton, Mass.). […] Reactions were incubated at 22° C. in 384-well polypropylene microtiter plates for 30 minutes and then stopped by addition of 25 uL of an EDTA containing solution (100 mM Hepes pH 7.2, 0.015% Brij-35, 150 mM EDTA), resulting in a final EDTA concentration of 50 mM. After termination of the kinase reaction, the proportion of phosphorylated product was determined as a fraction of total peptide substrate using the Caliper LabChip 3000 according to the manufacturer's specifications. Ki values were then determined using the Morrison tight binding model. Morrison, J. F., Biochim. Biophys. Acta. 185:269-296 (1969); William, J. W. and Morrison, J. F., Meth. Enzymol., 63:437-467 (1979).
For `Clc1cccc(Cl)c1-c1nc2c(Nc3ccccn3)nccc2[nH]1` [Example 1, 2-(2,6-dichlorophenyl)-N-(pyridin-2-yl)-1H-imidazo[4,5-e]pyridin-4-amine], affinity was put at a Ki of 1.7 nM.
The same measure for `Clc1cccc(Cl)c1-c1nc2ccnc(Nc3cn[nH]c3)c2[nH]1` [Example 3, 2-(2,6-dichlorophenyl)-N-(1H-pyrazol-4-yl)-3H-imidazo[4,5-e]-pyridin-4-amine]: 14.5 nM; for `Clc1cccc(Cl)c1-c1nc2ccnc(Nc3cc(N4CCOCC4)ncn3)c2[nH]1` [Example 5, 2-(2,6-dichlorophenyl)-N-(6-morpholinopyrimidin-4-yl)-3H-imidazo[4,5-e]pyridin-4-amine]: 0.6 nM; for `Fc1cccc(Cl)c1-c1nc2ccnc(Nc3cnccn3)c2[nH]1` [Example 6, 2-(2-chloro-6-fluorophenyl)-N-(pyrazin-2-yl)-3H-imidazo[4,5-e]-pyridin-4-amine]: 3.1 nM.
Next, `O=C(Nc1nccc2nc(-c3c(Cl)cccc3Cl)[nH]c12)c1cncs1` [Example 7, N-(2-(2,6-dichlorophenyl)-3H-imidazo[4,5-c]pyridin-4-yl) thiazole-5-carboxamide]: 7.8 nM; `N#Cc1cc(Cl)c(-c2nc3ccnc(NC(=O)C4CC4)c3[nH]2)c(Cl)c1` [Example 10, N-(2-(2,6-dichloro-4-cyanophenyl)-3H-imidazo[4,5-c]pyridin-4-yl)cyclopropanecarboxamide]: 2.5 nM.
The same measure for `CNC(=O)Nc1nccc2nc(-c3c(Cl)cccc3Cl)[nH]c12` [Example 11, 1-(2-(2,6-dichlorophenyl)-3H-imidazo[4,5-e]pyridin-4-yl)-3-methylurea]: 4.9 nM; for `Cn1c(-c2c(Cl)cccc2Cl)nc2c(NC(=O)C3CC3)nccc21` [Example 12, N-(2-(2,6-dichlorophenyl)-1-methyl-1H-imidazo[4,5-c]pyridine-4-yl)cyclopropanecarboxamide]: 13.3 nM; for `Cn1c(-c2c(Cl)cccc2Cl)nc2ccnc(NC(=O)C3CC3)c21` [Example 13, N-(2-(2,6-dichlorophenyl)-3-methyl-3H-imidazo[4,5-c]pyridine-4-yl)cyclopropanecarboxamide]: 19.5 nM.
`Clc1cccc(Cl)c1-c1nc2c(Nc3ccncn3)ncnc2[nH]1` [Example 14, 8-(2,6-dichlorophenyl)-N-(pyrimidin-4-yl)-9H-purin-6-amine] gave a Ki of 2.8 nM.
Next, `O=C(Nc1ncnc2nc(-c3c(Cl)cccc3Cl)[nH]c12)C1CC1` [Example 15, N-(8-(2,6-dichlorophenyl)-7H-purin-6-yl)cyclopropanecarboxamide]: 8.1 nM; `Cc1cc(Nc2ncc(F)c3[nH]c(-c4c(Cl)cccc4Cl)nc23)nc(C)n1` [Example 16, 2-(2,6-dichlorophenyl)-N-(2,6-dimethylpyrimidin-4-yl)-7-fluoro-1H-imidazo[4,5-c]pyridin-4-amine]: 2.3 nM; `Cc1nc(Nc2ncnc3nc(-c4c(Cl)cccc4Cl)[nH]c23)cc(N2CCN(CCO)CC2)n1` [Example 167, 2-(4-{6-[8-(2,6-Dichloro-phenyl)-7H-purin-6-ylamino]-2-methyl-pyrimidin-4-yl}-piperazin-1-yl)-ethanol]: 7.2 nM.
The same measure for `CNC(=O)Nc1ncnc2nc(-c3c(Cl)cccc3Cl)[nH]c12` [Example 171, 1-(8-(2,6-dichlorophenyl)-7H-purin-6-yl)-3-methylurea]: 27.2 nM; for `Cc1ccc(Nc2ncnc3nc(-c4c(Cl)cccc4Cl)[nH]c23)nc1` [Example 179, 8-(2,6-dichlorophenyl)-N-(5-methylpyridin-2-yl)-7H-purin-6-amine]: 1.5 nM; for `N#Cc1cc(Cl)c(-c2nc3ncnc(Nc4ccc(N5CCOCC5)cn4)c3[nH]2)c(Cl)c1` [Example 197, 3,5-dichloro-4-(6-(5-morpholinopyridin-2-ylamino)-7H-purin-8-yl)benzonitrile]: 1.4 nM.
Next, `COC(=O)Nc1ncnc2nc(-c3c(F)cccc3Cl)[nH]c12` [Example 208, methyl 8-(2-chloro-6-fluorophenyl)-7H-purin-6-ylcarbamate]: 56 nM.
For the molecule `O=C(Nc1ncnc2nc(-c3c(F)cccc3Cl)[nH]c12)C1CC1` [Example 210, N-(8-(2-chloro-6-fluorophenyl)-7H-purin-6-yl)cyclopropanecarboxamide], the Ki amounted to 27.8 nM.
In turn, `Cn1c(-c2c(Cl)cccc2Cl)nc2c(Nc3ccncc3)ncnc21` [Example 215, 8-(2,6-dichlorophenyl)-9-methyl-N-(pyridin-4-yl)-9H-purin-6-amine] gave a Ki of 56.5 nM.
The molecule `O=C(Nc1ncnc2c1nc(-c1c(Cl)cccc1Cl)n2CCO)C1CC1` [Example 439, Cyclopropanecarboxylic acid [8-(2,6-dichloro-phenyl)-9-(2-hydroxy-ethyl)-9H-purin-6-yl]-amide] gave a Ki of 835 nM.
In the case of `O=C(Nc1ncc(Cl)c2[nH]c(-c3c(Cl)cccc3Cl)nc12)C1CC1` [Example 447, Cyclopropanecarboxylic acid [7-chloro-2-(2,6-dichloro-phenyl)-1H-imidazo[4,5-c]pyridin-4-yl]-amide], the affinity corresponds to a Ki of 0.8 nM.
